# Measured values as given in patent US11679110B2, “Methods of treating disorders using CSF1R inhibitors” (Deciphera Pharmaceuticals, LLC, priority 2018, dated 2023).
# Legend:
# [1] = Sprague-Dawley, rat, in vivo, 4 weeks
# [2] = system: diffuse-type tenosynovial giant cell tumor; experiment: Tumor response and symptoms in DTGCT patients (case studies), RECIST version 1.1; assay type: in vivo, human
# Excerpt: Tumor response will be assessed by tumor type using the following criteria: for solid tumors and DTGCT: RECIST, Version 1.1; and for bone-only disease: a new lesion(s) identified by bone scan will be considered as disease progression.
# Additional descriptions of case studies of patients with DTGCT treated within this study are provided below: […]
# [3] = system: intratumoral macrophages; conditions: MC38 mice; oral QD; 21 days
# [4] = dog, in vivo
smiles,measurement,setting,value
"Cc1nc(-c2cnc(NC(C)C)n(C)c2=O)ccc1Oc1ccnc(-c2cnn(C)c2)c1 [Compound 1, 2-(isopropylamino)-3-methyl-5-(6-methyl-5-((2-(1-methyl-1H-pyrazol-4-yl)pyridin-4-yl)oxy)pyridin-2-yl)pyrimidin-4(3H)-one]",STD10 (Severely Toxic Dose in 10% of animals),[1],15 mg/kg/day
same,symptoms,"[2]; DTGCT Patient 1, Cohort 5",Improved pain and swelling and effusion were nearly resolved in the first cycle
same,decrease in tumor size from baseline,"[2]; DTGCT Patient 1, Cohort 5 (30 mg twice weekly maintenance), C3D1",48%
same,decrease in tumor size from baseline,"[2]; DTGCT Patient 1, Cohort 5, C5D1",61%
same,decrease in tumor size from baseline,"[2]; DTGCT Patient 1, Cohort 5, C7D1",75%
same,decrease in tumor size from baseline,"[2]; DTGCT Patient 1, Cohort 5, C10D1",84%
same,symptoms,"[2]; DTGCT Patient 2, Cohort 5","pain improvement, increased range of motion, and less stiffness"
same,decrease in tumor size from baseline,"[2]; DTGCT Patient 2, Cohort 5, C3D1",25%
same,symptoms,"[2]; DTGCT Patient 3, Cohort 5","rapid symptom improvement, with less pain and swelling and improved range of motion after the first cycle"
same,decrease in tumor size from baseline,"[2]; DTGCT Patient 3, Cohort 5, C3D1",24%
same,tumor response,[2]; DTGCT patient,up to 84%
same,reduction in intratumoral macrophages compared to vehicle or isotype controls (as a percent of all cells in the tumor),[3],> 80%
same,HNSTD (Highest Non-Serious Toxic Dose),"[4]; beagle, 4 weeks",7.5 mg/kg/day
same,safety margin at NOAEL/HNSTD relative to clinical exposure (AUC),[4],about 2.1 ×
